Like-named read-outs stand apart in the source and are kept apart here.
How the values were obtained:
Type in all cases: cell-based
[1] = target: IKZF2 (Homo sapiens, UniProt Q96SW2+Q9UKS7); assay: Prolabel quantification of IKZF2 protein levels in 293GT cells
[2] = target: GSPT1 (Homo sapiens, UniProt P15170+Q96SW2); assay: Prolabel quantification of GSPT1 protein levels in 293GT cells; details: Prolabel assay, read-out: GSPT1 EC50
Protocol: The Prolabel system from DiscoverX was used to develop high-throughput and quantitative assays to measure changes in IKZF1, IKZF2 and GSPT1 protein levels in response to compounds. The prolabel tag was derived from the alpha fragment of beta galactosidase and has the following protein sequence: mssnslavvlqrrdwenpgvtqlnrlaahppfaswrnseeartdrpsqqlrslnge. The complementary fragment of beta-galactosidase (from DiscoverX), is added to the prolabel tag to form an active beta galactosidase enzyme whose activity can be precisely measured. In this way, the levels of a fusion protein with the prolabel tag can be quantified in cell lysates.
Lentiviral vectors, based on the Invitrogen pLenti6.2/V5 DEST backbone, were constructed that placed the prolabel tag upstream of IKZF1, IKZF2 or GSPT1 and expressed the fusion protein from a CMV promoter.
To ensure moderate and consistent expression of the prolabel fusion proteins across all cells in the population, stable cell lines were constructed from cells expressing a single copy of the construct. Lentivirus packaged with the constructs was made using the Virapower kit from Invitrogen.
The levels of prolabel tagged fusion proteins in compound treated cell lines were measured as follows:
Day 1, Cells were diluted to 1.0×10^6 cells/ml in normal growth medium. 17.5 μL of cells were plated in each well of a solid white 384 well plate. Plates were incubated overnight in a 37° C. tissue culture incubator.
Day 2, Serial dilutions of compounds were made in 384 well plates from 10 mM stocks. 15 μL of DMSO was added to each well of a 384 well plate. In the first column 15 μL of stock compound was added. The solution was mixed and 15 μL was transferred to the next column. This was repeated until 20 two-fold dilutions were prepared. 2.5 μL of diluted compounds were transferred into 60 μL of cell culture medium in another 384 well plate, and mixed well. 2.5 μL of this mixture was added to the plated cells. The final DMSO concentration was 0.5% and the highest concentration of compound was 50 μM. Plates were incubated overnight (e.g., about 14 h, 18 h, or 24 h) in a 37° C. tissue culture incubator.
Day 3, Plates were removed from the incubator and allowed to equilibrate at rt for 30 minutes. Prolabel substrate (DiscoverX PathHunter Prolabel Detection Kit, User manual: 93-0180) was added as described by the manufacturers protocols. Plates were incubated at rt for three hours and luminescence was read using an Envision reader (Perkin Elmer) Data was analyzed and visualized using the Spotfire software package.

[3] = target: IKZF1 (Homo sapiens, UniProt Q13422+Q96SW2); assay: Prolabel quantification of IKZF1 protein levels in 293GT cells; details: Prolabel assay, read-out: IKZF1 EC50
Sequence of IKZF1 (Q13422 whole entry): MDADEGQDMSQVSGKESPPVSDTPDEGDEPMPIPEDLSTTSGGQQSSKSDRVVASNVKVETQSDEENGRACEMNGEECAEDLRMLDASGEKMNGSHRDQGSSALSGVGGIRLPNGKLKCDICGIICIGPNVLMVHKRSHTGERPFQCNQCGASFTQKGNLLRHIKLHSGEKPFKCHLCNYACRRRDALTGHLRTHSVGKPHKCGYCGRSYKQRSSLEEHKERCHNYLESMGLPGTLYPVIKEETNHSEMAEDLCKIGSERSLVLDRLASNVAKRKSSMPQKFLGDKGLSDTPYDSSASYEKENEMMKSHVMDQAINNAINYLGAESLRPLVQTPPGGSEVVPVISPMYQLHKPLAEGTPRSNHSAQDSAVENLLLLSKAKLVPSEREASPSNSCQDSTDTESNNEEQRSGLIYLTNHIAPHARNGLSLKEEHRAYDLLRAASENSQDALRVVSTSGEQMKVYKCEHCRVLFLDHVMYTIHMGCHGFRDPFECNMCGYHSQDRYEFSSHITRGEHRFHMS
Sequence of IKZF1 (Q96SW2 whole entry): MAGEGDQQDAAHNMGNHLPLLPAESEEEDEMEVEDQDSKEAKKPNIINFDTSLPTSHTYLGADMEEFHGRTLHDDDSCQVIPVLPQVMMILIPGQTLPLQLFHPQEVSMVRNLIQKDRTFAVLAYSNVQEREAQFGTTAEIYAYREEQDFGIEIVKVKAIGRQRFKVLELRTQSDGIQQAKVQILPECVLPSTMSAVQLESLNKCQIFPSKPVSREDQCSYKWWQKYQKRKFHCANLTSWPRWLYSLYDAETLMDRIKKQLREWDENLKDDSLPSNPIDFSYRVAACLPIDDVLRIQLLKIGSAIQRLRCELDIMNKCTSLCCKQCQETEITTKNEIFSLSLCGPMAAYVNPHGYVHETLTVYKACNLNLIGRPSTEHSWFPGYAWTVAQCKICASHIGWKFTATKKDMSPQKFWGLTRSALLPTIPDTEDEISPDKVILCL
Sequence of IKZF1 (Q16531 whole entry partner): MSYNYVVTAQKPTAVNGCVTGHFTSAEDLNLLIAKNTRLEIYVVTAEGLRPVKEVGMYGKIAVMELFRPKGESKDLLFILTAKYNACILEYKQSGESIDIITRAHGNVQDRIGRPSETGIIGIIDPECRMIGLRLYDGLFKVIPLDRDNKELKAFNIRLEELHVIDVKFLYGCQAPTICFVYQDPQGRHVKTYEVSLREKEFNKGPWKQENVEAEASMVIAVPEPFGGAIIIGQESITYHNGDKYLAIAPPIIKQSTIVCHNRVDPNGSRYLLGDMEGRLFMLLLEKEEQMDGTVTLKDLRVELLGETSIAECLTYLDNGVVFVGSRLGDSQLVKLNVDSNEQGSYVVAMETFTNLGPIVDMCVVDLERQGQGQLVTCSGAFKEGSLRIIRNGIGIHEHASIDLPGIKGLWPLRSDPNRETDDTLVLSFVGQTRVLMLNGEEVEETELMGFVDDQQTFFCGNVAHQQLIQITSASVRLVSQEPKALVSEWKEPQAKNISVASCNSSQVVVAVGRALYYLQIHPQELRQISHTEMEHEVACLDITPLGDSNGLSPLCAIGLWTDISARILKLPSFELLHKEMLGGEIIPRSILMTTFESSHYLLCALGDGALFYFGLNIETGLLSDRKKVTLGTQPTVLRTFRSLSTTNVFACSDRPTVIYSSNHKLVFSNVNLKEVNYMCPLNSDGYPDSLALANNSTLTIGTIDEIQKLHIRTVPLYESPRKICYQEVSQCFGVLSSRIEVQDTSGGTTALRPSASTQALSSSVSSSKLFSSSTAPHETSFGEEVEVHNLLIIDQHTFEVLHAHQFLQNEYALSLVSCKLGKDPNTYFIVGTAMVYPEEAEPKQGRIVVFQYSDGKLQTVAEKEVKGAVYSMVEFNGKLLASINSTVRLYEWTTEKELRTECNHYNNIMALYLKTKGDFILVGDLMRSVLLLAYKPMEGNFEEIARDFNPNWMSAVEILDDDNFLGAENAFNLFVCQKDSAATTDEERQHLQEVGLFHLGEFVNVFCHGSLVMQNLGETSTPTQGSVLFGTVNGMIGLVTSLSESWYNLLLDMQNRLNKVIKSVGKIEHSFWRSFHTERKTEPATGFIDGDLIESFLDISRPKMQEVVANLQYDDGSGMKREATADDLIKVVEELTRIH

[4] = 24 h, 10 μM, 24 h, 293GT cells; read-out: IKZF2 % protein reduction at 10 μM, 24 h
[5] = Prolabel assay, 293GT cells; read-out: IKZF2 EC50
[6] = 10 μM, 24 h, 293GT cells; read-out: IKZF2 % protein reduction at 10 μM, 24 h

Sequence of GSPT1 (P15170 whole entry, the tested form may be a part): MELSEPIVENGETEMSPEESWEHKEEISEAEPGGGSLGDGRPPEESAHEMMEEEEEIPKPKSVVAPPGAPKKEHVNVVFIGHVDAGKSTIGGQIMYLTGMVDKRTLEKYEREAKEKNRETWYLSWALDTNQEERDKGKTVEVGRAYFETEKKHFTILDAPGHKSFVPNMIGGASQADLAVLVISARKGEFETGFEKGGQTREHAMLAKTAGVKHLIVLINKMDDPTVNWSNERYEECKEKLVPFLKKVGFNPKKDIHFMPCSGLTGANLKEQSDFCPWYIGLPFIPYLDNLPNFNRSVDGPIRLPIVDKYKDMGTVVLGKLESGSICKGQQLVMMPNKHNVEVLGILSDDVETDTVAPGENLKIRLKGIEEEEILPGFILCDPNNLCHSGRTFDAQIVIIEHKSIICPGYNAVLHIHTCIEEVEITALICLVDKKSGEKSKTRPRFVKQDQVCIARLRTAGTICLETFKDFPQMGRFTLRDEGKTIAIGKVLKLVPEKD
Sequence of GSPT1 (Q96SW2 whole entry, the tested form may be a part): as the sequence (Q96SW2 whole entry) above
Sequence of GSPT1 (Q16531 whole entry partner, the tested form may be a part): as the sequence (Q16531 whole entry partner) above
Sequence of IKZF2 (Q9UKS7 whole entry): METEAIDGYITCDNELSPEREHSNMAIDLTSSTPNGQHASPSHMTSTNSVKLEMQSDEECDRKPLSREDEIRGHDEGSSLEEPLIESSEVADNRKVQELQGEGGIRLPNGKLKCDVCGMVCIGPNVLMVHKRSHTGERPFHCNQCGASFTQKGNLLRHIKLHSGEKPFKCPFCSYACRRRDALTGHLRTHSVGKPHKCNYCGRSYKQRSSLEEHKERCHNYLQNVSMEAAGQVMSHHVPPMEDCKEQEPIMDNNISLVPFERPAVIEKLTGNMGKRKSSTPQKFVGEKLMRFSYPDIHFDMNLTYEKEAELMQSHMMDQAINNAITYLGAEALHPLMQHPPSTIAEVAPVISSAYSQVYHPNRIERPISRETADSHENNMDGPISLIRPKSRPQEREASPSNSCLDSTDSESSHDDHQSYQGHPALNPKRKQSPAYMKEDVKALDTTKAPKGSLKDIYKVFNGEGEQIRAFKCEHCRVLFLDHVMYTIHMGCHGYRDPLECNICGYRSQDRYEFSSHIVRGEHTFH
Sequence of IKZF2 (Q96SW2 whole entry): as the sequence (Q96SW2 whole entry) above
Sequence of IKZF2 (Q16531 whole entry partner): as the sequence (Q16531 whole entry partner) above

Structure (SMILES)	inhibition at 10 µM [1, 4] [%]	DC50 [1, 5] [µM]	DC50 [2] [µM]	DC50 [3] [µM]	IKZF2 protein levels as compared to the control (DMSO) ([1]; Prolabel assay in HEK293GT cells, bar graph)	inhibition at 10 µM [1, 6] [%]
NC(=O)c1cccc(CN2CCC(c3ccc4c(c3)CN(C3CCC(=O)NC3=O)C4=O)CC2)c1 (stereo not shown) [Compound I-139, 3-((4-(2-(2,6-dioxopiperidin-3-yl)-1-oxoisoindolin-5-yl)piperidin-1-yl)methyl)benzamide]	70	0.081	> 30	> 30		
O=C1CCC(N2Cc3cc(C4CCN(Cc5cnc(N6CCCC6)nc5)CC4)ccc3C2=O)C(=O)N1 (stereo not shown) [Compound I-142, 3-(1-oxo-5-(1-((2-(pyrrolidin-1-yl)pyrimidin-5-yl)methyl)piperidin-4-yl)isoindolin-2-yl)piperidine-2,6-dione]	75	0.016	> 30	> 30		
CC(C)(C)c1nc(CN2CCC(c3ccc4c(c3)CN(C3CCC(=O)NC3=O)C4=O)CC2)cs1 (stereo not shown) [Compound I-143, 3-(5-(1-((2-(tert-butyl)thiazol-4-yl)methyl)piperidin-4-yl)-1-oxoisoindolin-2-yl)piperidine-2,6-dione]	60	0.026	> 30	> 30		
O=C1CCC(N2Cc3cc(C4CCN(Cc5cnc(N6CCOCC6)nc5)CC4)ccc3C2=O)C(=O)N1 (stereo not shown) [Compound I-147, 3-(5-(1-((2-morpholinopyrimidin-5-yl)methyl)piperidin-4-yl)-1-oxoisoindolin-2-yl)piperidine-2,6-dione]	75	0.025	> 30	> 30	decreased	
Cc1ccc2c(CN3CCC(c4ccc5c(c4)CN(C4CCC(=O)NC4=O)C5=O)CC3)c[nH]c2c1 (stereo not shown) [Compound I-149, 3-(5-(1-((6-methyl-1H-indol-3-yl)methyl)piperidin-4-yl)-1-oxoisoindolin-2-yl)piperidine-2,6-dione]	80	0.016	> 30	> 30		
O=C1CCC(N2Cc3cc(C4CCN(Cc5nc(-c6ccccc6)c[nH]5)CC4)ccc3C2=O)C(=O)N1 (stereo not shown) [Compound I-154, 3-(1-oxo-5-(1-((4-phenyl-1H-imidazol-2-yl)methyl)piperidin-4-yl)isoindolin-2-yl)piperidine-2,6-dione]	85	0.008	> 30	0.043		
O=C1CCC(N2Cc3cc(C4CCNCC4)ccc3C2=O)C(=O)N1 (stereo not shown) [Compound I-155, 3-(1-oxo-5-(piperidin-4-yl)isoindolin-2-yl)piperidine-2,6-dione]	40		> 50	> 50		
O=C1CCC(N2Cc3cc(C4CCN(Cc5cc(F)c(O)c(F)c5)CC4)ccc3C2=O)C(=O)N1 (stereo not shown) [Compound I-156, 3-(5-(1-(3,5-difluoro-4-hydroxybenzyl)piperidin-4-yl)-1-oxoisoindolin-2-yl)piperidine-2,6-dione]	70	0.022	> 50	> 50		
Cc1ccccc1CN1CCC(c2ccc3c(c2)CN(C2CCC(=O)NC2=O)C3=O)CC1 (stereo not shown) [Compound I-157, 3-(5-(1-(2-methylbenzyl)piperidin-4-yl)-1-oxoisoindolin-2-yl)piperidine-2,6-dione]	55	0.056	> 50	> 50		
Cc1ccc(CN2CCC(c3ccc4c(c3)CN(C3CCC(=O)NC3=O)C4=O)CC2)cc1 (stereo not shown) [Compound I-158, 3-(5-(1-(4-methylbenzyl)piperidin-4-yl)-1-oxoisoindolin-2-yl)piperidine-2,6-dione]	55	0.016	> 50	> 50		
Cc1cc(C)cc(CN2CCC(c3ccc4c(c3)CN(C3CCC(=O)NC3=O)C4=O)CC2)c1 (stereo not shown) [Compound I-159, 3-(5-(1-(3,5-dimethylbenzyl)piperidin-4-yl)-1-oxoisoindolin-2-yl)piperidine-2,6-dione]	55	0.019	> 50	> 50		
C[C@H]1CC(c2ccc3c(c2)CN(C2CCC(=O)NC2=O)C3=O)CCN1Cc1ccccc1 (stereo partly drawn) [Compound I-160, 3-(5-((2S)-1-benzyl-2-methylpiperidin-4-yl)-1-oxoisoindolin-2-yl)piperidine-2,6-dione]	50	0.018	> 50	> 50		
O=C1CCC(N2Cc3cc(C4CCN(Cc5cccc6c5CCCC6)CC4)ccc3C2=O)C(=O)N1 (stereo not shown) [Compound I-164, 3-(1-oxo-5-(1-((5,6,7,8-tetrahydronaphthalen-1-yl)methyl)piperidin-4-yl)isoindolin-2-yl)piperidine-2,6-dione]	50	0.018	> 50	> 50		
O=C1CCC(N2Cc3cc(C4CCN(CC5CCCc6ccccc65)CC4)ccc3C2=O)C(=O)N1 (stereo not shown) [Compound I-168, 3-(1-oxo-5-(1-((1,2,3,4-tetrahydronaphthalen-1-yl)methyl)piperidin-4-yl)isoindolin-2-yl)piperidine-2,6-dione]	55	0.014	> 50	> 50		
COC(=O)CN1CCC(c2ccc3c(c2)CN(C2CCC(=O)NC2=O)C3=O)CC1 (stereo not shown) [Compound I-169, methyl 2-(4-(2-(2,6-dioxopiperidin-3-yl)-1-oxoisoindolin-5-yl)piperidin-1-yl)acetate]			> 50	> 50		20
O=C1CCC(N2Cc3cc(C4CCN(c5ccccc5)CC4)ccc3C2=O)C(=O)N1 (stereo not shown) [Compound I-170, 3-(1-oxo-5-(1-phenylpiperidin-4-yl)isoindolin-2-yl)piperidine-2,6-dione]			> 50	> 50		5
CC1(C)CC(c2ccc3c(c2)CN(C2CCC(=O)NC2=O)C3=O)CC(C)(C)N1 (stereo not shown) [Compound I-171, 3-(1-oxo-5-(2,2,6,6-tetramethylpiperidin-4-yl)isoindolin-2-yl)piperidine-2,6-dione]	5		> 50	> 50		
Cn1nc(CN2CCC(c3ccc4c(c3)CN(C3CCC(=O)NC3=O)C4=O)CC2)c2ccccc21 (stereo not shown) [Compound I-203, 3-(5-(1-((1-methyl-1H-indazol-3-yl)methyl)piperidin-4-yl)-1-oxoisoindolin-2-yl)piperidine-2,6-dione]	50	0.016	> 30	> 30		
CN1CCN(Cc2cc(CN3CCC(c4ccc5c(c4)CN(C4CCC(=O)NC4=O)C5=O)CC3)ccc2O)CC1 (stereo not shown) [Compound I-205, 3-(5-(1-(4-hydroxy-3-((4-methylpiperazin-1-yl)methyl)benzyl)piperidin-4-yl)-1-oxoisoindolin-2-yl)piperidine-2,6-dione]	70	0.05	> 30	> 30		
N#CCc1ccc(CN2CCC(c3ccc4c(c3)CN(C3CCC(=O)NC3=O)C4=O)CC2)cc1 (stereo not shown) [Compound I-206, 2-(4-((4-(2-(2,6-dioxopiperidin-3-yl)-1-oxoisoindolin-5-yl)piperidin-1-yl)methyl)phenyl)acetonitrile]	80	0.009	> 30	> 30		
O=C1CCC(N2Cc3cc(C4CCN(Cc5csc(-c6ccccc6)n5)CC4)ccc3C2=O)C(=O)N1 (stereo not shown) [Compound I-211, 3-(1-oxo-5-(1-((2-phenylthiazol-4-yl)methyl)piperidin-4-yl)isoindolin-2-yl)piperidine-2,6-dione]	80	0.024	> 30	0.039		
O=C1CCC(N2Cc3cc(C4CCN(Cc5nc6ccsc6c(=O)[nH]5)CC4)ccc3C2=O)C(=O)N1 (stereo not shown) [Compound I-213, 3-(1-oxo-5-(1-((4-oxo-3,4-dihydrothieno[3,2-d]pyrimidin-2-yl)methyl)piperidin-4-yl)isoindolin-2-yl)piperidine-2,6-dione]	70	0.045	> 30	> 30		

Reference: US11053218B2, “3-(1-oxoisoindolin-2-yl)piperidine-2,6-dione derivatives and uses thereof” (Novartis AG, priority 2017, dated 2021)
